Tests used:
human NK-3 receptor [1] = molecular target: T1, human NK-3 receptor (Homo sapiens, UniProt P29371); experiment: 3H-SB222200 binding competition assay with human NK-3 receptor; design: expressed in transfected cells; membranes; conditions: read-out: Competitive binding assay with human NK-3 receptor hNK-3 (Ki)
T1 sequence (P29371 1-465): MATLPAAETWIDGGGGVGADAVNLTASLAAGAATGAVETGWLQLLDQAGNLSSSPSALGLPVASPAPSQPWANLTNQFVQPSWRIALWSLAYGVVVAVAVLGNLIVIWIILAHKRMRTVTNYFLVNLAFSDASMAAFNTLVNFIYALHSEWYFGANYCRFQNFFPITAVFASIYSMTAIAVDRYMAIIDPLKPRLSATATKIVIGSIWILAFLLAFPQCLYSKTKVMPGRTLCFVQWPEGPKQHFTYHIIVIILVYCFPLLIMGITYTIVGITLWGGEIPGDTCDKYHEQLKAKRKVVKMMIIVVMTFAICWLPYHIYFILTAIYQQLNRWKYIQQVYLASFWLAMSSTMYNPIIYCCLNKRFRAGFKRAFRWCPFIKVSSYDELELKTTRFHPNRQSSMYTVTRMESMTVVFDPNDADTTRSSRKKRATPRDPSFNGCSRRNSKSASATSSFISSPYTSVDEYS
Method: The affinity of compounds of the invention for the human NK-3 receptor was determined by measuring the ability of compounds of the invention to competitively and reversibly displace a well-characterized NK-3 radioligand in a concentration-dependent manner.
Membranes were prepared from Chinese hamster ovary recombinant cells stably expressing the human NK-3 receptor. The membranes were incubated with 5 nM ^3H-SB222200 (ARC) in a HEPES 25 mM/NaCl 0.1M/CaCl2 1 mM/MgCl2 5 mM/BSA 0.5%/Saponin 10 μg/ml buffer at pH 7.4 and various concentrations of compounds of the invention. The amount of ^3H-SB222200 bound to the receptor was determined after filtration by the quantification of membrane associated radioactivity using the TopCount-NXT reader (Packard).

human NK-3 receptor [2] = molecular target: T1, human NK-3 receptor; experiment: cell-based
Method: Aequorin Assay with Human NK-3 Receptor.
The efficacy of compounds of the invention to inhibit NKA-mediated NK-3 receptor activation was assessed by an in vitro Aequorin functional assay. Chinese Hamster Ovary recombinant cells expressing the human NK-3 receptor and a construct that encodes the photoprotein apoaequorin were used for this assay. In the presence of the cofactor coelenterazine, apoaequorin emits a measurable luminescence that is proportional to the amount of intracellular (cytoplasmic) free calcium.
The antagonist activity of compounds of the invention is measured following pre-incubation (3 minutes) of the compound (at various concentrations) with the cells, followed by addition of the reference agonist (NKA) at a final concentration equivalent to the EC80 (3 nM) and recording of emitted light (FDSS 6000 Hamamatsu) over the subsequent 90-second period. The intensity of the emitted light is integrated using the reader software. Compound antagonist activity is measured based on the concentration-dependent inhibition of the luminescence response to the addition of Neurokinin A.

Ki (human NK-3 receptor [1]): 17 nM
IC50 (human NK-3 receptor [2]): 13 nM
SMILES: [2H]C([2H])([2H])c1nsc(-c2nnc3n2CCN(C(=O)c2ccc(F)cc2)[C@@H]3C)n1 [Deuterated fezolinetant, (R)-(4-fluorophenyl)-(8-methyl-3-(3-(methyl-d3)-1,2,4-thiadiazol-5-yl)-5,6-dihydro-[1,2,4]trizolo[4,3-a]pyrazin-7(8H)-yl)methanone]
